Measurements taken from US10506809B2, “Herbicidal combination comprising saflufenacil and glufosinate” (BASF SE, priority 2015, dated 2019).
Like-named read-outs stand apart in the source and are kept apart here.

Tests used:
Type in all cases: in vivo
Brachiaria platyphylla = assay: Greenhouse post-emergence herbicidal activity on BRAPP (broadleaf signalgrass)
Source text: (§1) The test plants were first grown to a height of 3 to 20 cm, depending on the plant habit, and only then treated (post-emergence treatment). Here, the herbicidal combinations were suspended, emulsified or dissolved in water as distribution medium and afterwards applied by spraying, using finely distributing nozzles.
(§2) The herbicides A, B and C were used as commercially available formulations and introduced to the spray liquor with the amount of solvent system used for applying the active compound. In the examples, the solvent used was water.
The test period extended over 20 days. During this time, the plants were tended, and their response to the treatments with active compounds was evaluated. […]
The value E, which is to be expected if the activity of the individual compounds is just additive, was calculated using the method of S. R. Colby (1967) “Calculating synergistic and antagonistic responses of herbicide combinations”, Weeds 15, p. […] For two component mixtures the value E was calculated by the following formula E=X+Y−(X·Y/100) where • X=effect in percent using a mixture of herbicides A and B at application rates a and b, respectively; • Y=effect in percent using herbicide C at an application rate c; • E=expected effect (in %) of A+B+C at application rates a+b+c.
If the value observed in this manner is higher than the value E calculated according to Colby, a synergistic effect is present. […]

Amaranthus retroflexus = assay: Greenhouse post-emergence herbicidal activity on AMARE (pig weed)
Source text: as §1, §2
(§3) The test period extended over 20 days. During this time, the plants were tended, and their response to the treatments with active compounds was evaluated.
(§4) The evaluation for the damage caused by the chemical compositions was carried out using a scale from 0 to 100%, compared to the untreated control plants. Here, 0 means no damage and 100 means complete destruction of the plants.
(§5) The plants used in the greenhouse experiments belonged to the following species:
(§6) The value E, which is to be expected if the activity of the individual compounds is just additive, was calculated using the method of S. R. Colby (1967) “Calculating synergistic and antagonistic responses of herbicide combinations”, Weeds 15, p. 22 ff. For two component mixtures the value E was calculated by the following formula E=X+Y−(X·Y/100) where • X=effect in percent using a mixture of herbicides A and B at application rates a and b, respectively; • Y=effect in percent using herbicide C at an application rate c; • E=expected effect (in %) of A+B+C at application rates a+b+c.
(§7) If the value observed in this manner is higher than the value E calculated according to Colby, a synergistic effect is present.
(§8) Tables 1 to 21 relate to the herbicidal activities of the binary mixture of herbicides A and B, of herbicide C individually and of their combinations in post-emergence application assessed 20 days after treatment (20 DAT).

Brachiaria decumbens = assay: Greenhouse post-emergence herbicidal activity on BRADC (Surinam grass)
Source text: as §1, §2, §3, §4, §5, §6, §7, §8

Digitaria sanguinalis = assay: Greenhouse post-emergence herbicidal activity on DIGSA (large crabgrass)
Source text: as §1, §2, §3, §4, §5, §6, §7, §8

Abutilon theophrasti = assay: Greenhouse post-emergence herbicidal activity on ABUTH (velvetleaf)
Source text: as §1, §2, §3, §4, §5, §6, §7, §8

Echinochloa crus-galli = assay: Greenhouse post-emergence herbicidal activity on ECHCG (barnyard grass)
Source text: as §1, §2, §3, §4, §5, §6, §7, §8

Avena fatua = assay: Greenhouse post-emergence herbicidal activity on AVEFA (common wild oat)
Source text: as §1, §2, §3, §4, §5, §6, §7, §8

Setaria viridis = assay: Greenhouse post-emergence herbicidal activity on SETVI (green foxtail)
Source text: as §1, §2, §3, §4, §5, §6, §7, §8

Solanum nigrum = assay: Greenhouse post-emergence herbicidal activity on SOLNI (black nightshade)
Source text: as §1, §2, §3, §4, §5, §6, §7, §8

[1] = Abutilon theophrasti, 480 h, ABUTH, solo C 20.0 g ai/ha, 20 DAT, read-out: % activity 20 DAT
[2] = solo C 2,4-D LV ester 6.25 g ai/ha
[3] = solo C S-metolachlor 150.0 g ai/ha

CS(=O)(=O)c1cc(C(F)(F)F)ccc1C(=O)c1cnoc1C1CC1 [isoxaflutole, Isoxaflutole] showed an inhibition at 1 g/ha (Brachiaria platyphylla; Urochloa platyphylla, 480 h, solo C isoxaflutole 1.0 g ai/ha, read-out: % activity 20 DAT) of 25% and an inhibition at 0.5 g/ha (Amaranthus retroflexus; Amaranthus retroflexus, 480 h, solo C isoxaflutole 0.5 g ai/ha, read-out: % activity 20 DAT) of 55%.
For Cc1ccc(S(=O)(=O)Oc2c(C(=O)c3ccc(Cl)cc3Cl)c(C)nn2C)cc1 [pyrazolynate, Pyrazolynate], the “% activity 20 DAT” value (Brachiaria decumbens; solo C 10.0 g ai/ha, 20 DAT) was 0%, the “% activity 20 DAT” value (Digitaria sanguinalis; solo C 10.0 g ai/ha, 20 DAT) was 0% and the pest or weed control at 20 g/ha (Abutilon theophrasti; [1]) was 25%.
Cc1c(C(=O)c2cnn(C)c2O)ccc(S(C)(=O)=O)c1C1=NOCC1 [topramezone, Topramezone] was tested, and the “% activity 20 DAT” value (Echinochloa crus-galli; solo C 0.25 g ai/ha) was 20%, the “% activity 20 DAT” value (Digitaria sanguinalis; solo C 0.25 g ai/ha, 20 DAT) was 10% and the “% activity 20 DAT” value (Avena fatua; solo C 0.25 g ai/ha) was 10%. For the same compound, the “% activity 20 DAT” value (Abutilon theophrasti; ABUTH, solo C 0.25 g ai/ha, 20 DAT) was 0%.
With Bicyclopyrone the “% activity 20 DAT” value (Setaria viridis; SETVI, solo C 1.0 g ai/ha, 20 DAT) was 0%, the “% activity 20 DAT” value (Echinochloa crus-galli; solo C 20.0 g ai/ha) was 75% and the “% activity 20 DAT” value (Avena fatua; solo C 2.0 g ai/ha) was 0%.
For CCNc1nc(Cl)nc(NC(C)C)n1 [atrazin, Atrazin], the inhibition at 6.25 g/ha (Solanum nigrum; Solanum nigrum, 480 h, solo C atrazin 6.25 g ai/ha, read-out: % activity 20 DAT) was 35%.
CCC(CC)Nc1c([N+](=O)[O-])cc(C)c(C)c1[N+](=O)[O-] [pendimethalin, Pendimethalin] showed an inhibition at 150 g/ha (Setaria viridis; Setaria viridis, 480 h, solo C pendimethalin 150.0 g ai/ha, SETVI, read-out: % activity 20 DAT) of 25% and an inhibition at 75 g/ha (Amaranthus retroflexus; Amaranthus retroflexus, 480 h, solo C pendimethalin 75.0 g ai/ha, read-out: % activity 20 DAT) of 55%.
In the case of CCOCN(C(=O)CCl)c1c(C)cccc1CC [acetochlor, Acetochlor], the inhibition at 12.5 g/ha (Abutilon theophrasti; Abutilon theophrasti, 480 h, solo C acetochlor 12.5 g ai/ha, ABUTH, read-out: % activity 20 DAT) was 10%.
With COC[C@H](C)N(C(=O)CCl)c1c(C)csc1C [dimethenamid-P, Dimethenamid-P] the “% activity 20 DAT” value (Solanum nigrum; solo C dimethenamid-P 18.75 g ai/ha) was 10%.
For CCCCC(CC)COC(=O)COc1ccc(Cl)cc1Cl (stereo not drawn) [2,4-D LV ester, 2,4-D], the “% activity 20 DAT” value (Brachiaria platyphylla; [2]) was 10% and the “% activity 20 DAT” value (Amaranthus retroflexus; [2]) was 45%.
C#CCN1C(=O)COc2cc(F)c(N3C(=O)C4=C(CCCC4)C3=O)cc21 [flumioxazin, Flumioxazin] showed an inhibition at […] (Setaria viridis; Setaria viridis, 480 h, solo C flumioxazin 0.25 g ai/ha, SETVI, read-out: % activity 20 DAT) of 60% and an inhibition at 0.125 g/ha (Abutilon theophrasti; Abutilon theophrasti, 480 h, solo C flumioxazin 0.125 g ai/ha, ABUTH, read-out: % activity 20 DAT) of 80%.
For CCc1cccc(C)c1N(C(=O)CCl)[C@@H](C)COC [S-metolachlor, S-Metolachlor], the “% activity 20 DAT” value (Setaria viridis; solo C S-metolachlor 300.0 g ai/ha, SETVI) was 60%, the “% activity 20 DAT” value (Brachiaria decumbens; [3]) was 0% and the “% activity 20 DAT” value (Digitaria sanguinalis; [3]) was 0%. For the same compound, the “% activity 20 DAT” value (Abutilon theophrasti; solo C S-metolachlor 150.0 g ai/ha, ABUTH) was 10%.
Compound Cc1nn(-c2cc(NS(C)(=O)=O)c(Cl)cc2Cl)c(=O)n1C(F)F [salfentrazone, Sulfentrazone] has an inhibition at 1.5 g/ha (Setaria viridis; Setaria viridis, 480 h, solo C salfentrazone 1.5 g ai/ha, SETVI, read-out: % activity 20 DAT) of 30% and an inhibition at 1.5 g/ha (Abutilon theophrasti; Abutilon theophrasti, 480 h, solo C salfentrazone 1.5 g ai/ha, ABUTH, read-out: % activity 20 DAT) of 40%.
Cc1nn(C)c(O)c1C(=O)c1ccc(C(F)(F)F)cc1S(C)(=O)=O [pyrasulfotole, Pyrasulfotole] was tested, and the “% activity 20 DAT” value (Echinochloa crus-galli; solo C 2.5 g ai/ha) was 80%, the “% activity 20 DAT” value (Brachiaria decumbens; solo C 5.0 g ai/ha, 20 DAT) was 0% and the “% activity 20 DAT” value (Digitaria sanguinalis; solo C 5.0 g ai/ha, 20 DAT) was 35%.
For CCOc1nc(F)cc2nc(S(=O)(=O)Nc3c(Cl)cccc3Cl)nn12 [diclosulam, Diclosulam], the “% activity 20 DAT” value (Setaria viridis; solo C diclosulam 0.5 g ai/ha, SETVI) was 35% and the “% activity 20 DAT” value (Solanum nigrum; solo C diclosulam 0.25 g ai/ha) was 25%.
For CS(=O)(=O)c1ccc(C(=O)C2=C(Sc3ccccc3)C3CCC(C3)C2=O)c(Cl)c1 (stereo not drawn) [benzobicyclon, Benzobicyclon], the “% activity 20 DAT” value (Digitaria sanguinalis; solo C 20.0 g ai/ha, 20 DAT) was 60%, the “% activity 20 DAT” value (Avena fatua; solo C 10.0 g ai/ha) was 10% and the “% activity 20 DAT” value (Abutilon theophrasti; ABUTH, solo C 20.0 g ai/ha, 20 DAT) was 90%. The “% activity 20 DAT” value (Amaranthus retroflexus; solo C 20.0 g ai/ha, 20 DAT) was 60%.
Work on CS(=O)(=O)c1ccc(C(=O)C2C(=O)CCCC2=O)c(Cl)c1COCC(F)(F)F [tembotrione, Tembotrione] yielded an inhibition at 1 g/ha (Setaria viridis; Setaria viridis, 480 h, solo C tembotrione 1.0 g ai/ha, SETVI, read-out: % activity 20 DAT) of 0%, an inhibition at 1 g/ha (Avena fatua; Avena fatua, 480 h, solo C tembotrione 1.0 g ai/ha, read-out: % activity 20 DAT) of 10% and an inhibition at 1 g/ha (Abutilon theophrasti; Abutilon theophrasti, 480 h, solo C tembotrione 1.0 g ai/ha, ABUTH, read-out: % activity 20 DAT) of 10%. The inhibition at 0.5 g/ha (Amaranthus retroflexus; Amaranthus retroflexus, 480 h, solo C tembotrione 0.5 g ai/ha, read-out: % activity 20 DAT) was 80%.
In the case of CS(=O)(=O)c1ccc(C(=O)C2C(=O)CCCC2=O)c([N+](=O)[O-])c1 [mesotrione, Mesotrione], the inhibition at […] (Setaria viridis; Setaria viridis, 480 h, solo C mesotrione 2.5 g ai/ha, SETVI, read-out: % activity 20 DAT) was 25% and the inhibition at 1.25 g/ha (Solanum nigrum; Solanum nigrum, 480 h, solo C mesotrione 1.25 g ai/ha, read-out: % activity 20 DAT) was 85%.
For O=C(O)c1c(Cl)ccc2cc(Cl)cnc12 [quinclorac, Quinclorac], the inhibition at 5 g/ha (Echinochloa crus-galli; Echinochloa crus-galli, 480 h, solo C quinclorac 5.0 g ai/ha, read-out: % activity 20 DAT) was 0% and the inhibition at 5 g/ha (Avena fatua; Avena fatua, 480 h, solo C quinclorac 5.0 g ai/ha, read-out: % activity 20 DAT) was 0%.
In the case of CS(=O)(=O)c1ccc(C(=O)C2C(=O)CCCC2=O)c(Cl)c1 [sulcotrione, Sulcotrione], the “% activity 20 DAT” value (Echinochloa crus-galli; solo C 2.5 g ai/ha) was 30%, the “% activity 20 DAT” value (Brachiaria decumbens; solo C 5.0 g ai/ha, 20 DAT) was 0% and the pest or weed control at 20 g/ha (Abutilon theophrasti; Abutilon theophrasti, 480 h, read-out: % activity 20 DAT) was 85%.
For Nc1c(Cl)c(F)nc(OCC(=O)O)c1Cl [fluroxypyr, Fluroxypyr], the “% activity 20 DAT” value (Avena fatua; solo C 10.0 g ai/ha) was 0% and the pest or weed control at 20 g/ha (Abutilon theophrasti; [1]) was 50%.
In the case of COc1c(Cl)ccc(Cl)c1C(=O)O [dicamba, Dicamba], the inhibition at 8.75 g/ha (Setaria viridis; Setaria viridis, 480 h, read-out: % activity 20 DAT) was 15% and the inhibition at 17.5 g/ha (Abutilon theophrasti; Abutilon theophrasti, 480 h, solo C dicamba 17.5 g ai/ha, ABUTH, read-out: % activity 20 DAT) was 70%.
